Experimental findings from article PMC5974244, “Tumour-associated missense mutations in the dMi-2 ATPase alters nucleosome remodelling properties in a mutation-specific manner” (Nature Communications, 2018) are described below.

Assay [1] concerns the target T1, dMi-2 (Drosophila melanogaster, UniProt O97159, V538F).
T1 construct: gene Mi-2; FLAG-tagged dMi-2 (no truncation stated), baculovirus / Sf9 cells, anti-FLAG purified, FLAG peptide elution
Briefly: nitrocellulose filter binding with [gamma-32P]ATP. The note with it: labelled compound; same 90 nM protein, 0.25 mM MgCl2, 26 °C; printed as V558F (human CHD4 numbering).

The target of assay [2] is T2, dMi-2 (Drosophila melanogaster, UniProt O97159).
T2 construct: gene Mi-2; FLAG-tagged dMi-2 (no truncation stated), baculovirus / Sf9 cells, anti-FLAG purified, FLAG peptide elution
T2 sequence (O97159 whole entry, the tested form may be a part): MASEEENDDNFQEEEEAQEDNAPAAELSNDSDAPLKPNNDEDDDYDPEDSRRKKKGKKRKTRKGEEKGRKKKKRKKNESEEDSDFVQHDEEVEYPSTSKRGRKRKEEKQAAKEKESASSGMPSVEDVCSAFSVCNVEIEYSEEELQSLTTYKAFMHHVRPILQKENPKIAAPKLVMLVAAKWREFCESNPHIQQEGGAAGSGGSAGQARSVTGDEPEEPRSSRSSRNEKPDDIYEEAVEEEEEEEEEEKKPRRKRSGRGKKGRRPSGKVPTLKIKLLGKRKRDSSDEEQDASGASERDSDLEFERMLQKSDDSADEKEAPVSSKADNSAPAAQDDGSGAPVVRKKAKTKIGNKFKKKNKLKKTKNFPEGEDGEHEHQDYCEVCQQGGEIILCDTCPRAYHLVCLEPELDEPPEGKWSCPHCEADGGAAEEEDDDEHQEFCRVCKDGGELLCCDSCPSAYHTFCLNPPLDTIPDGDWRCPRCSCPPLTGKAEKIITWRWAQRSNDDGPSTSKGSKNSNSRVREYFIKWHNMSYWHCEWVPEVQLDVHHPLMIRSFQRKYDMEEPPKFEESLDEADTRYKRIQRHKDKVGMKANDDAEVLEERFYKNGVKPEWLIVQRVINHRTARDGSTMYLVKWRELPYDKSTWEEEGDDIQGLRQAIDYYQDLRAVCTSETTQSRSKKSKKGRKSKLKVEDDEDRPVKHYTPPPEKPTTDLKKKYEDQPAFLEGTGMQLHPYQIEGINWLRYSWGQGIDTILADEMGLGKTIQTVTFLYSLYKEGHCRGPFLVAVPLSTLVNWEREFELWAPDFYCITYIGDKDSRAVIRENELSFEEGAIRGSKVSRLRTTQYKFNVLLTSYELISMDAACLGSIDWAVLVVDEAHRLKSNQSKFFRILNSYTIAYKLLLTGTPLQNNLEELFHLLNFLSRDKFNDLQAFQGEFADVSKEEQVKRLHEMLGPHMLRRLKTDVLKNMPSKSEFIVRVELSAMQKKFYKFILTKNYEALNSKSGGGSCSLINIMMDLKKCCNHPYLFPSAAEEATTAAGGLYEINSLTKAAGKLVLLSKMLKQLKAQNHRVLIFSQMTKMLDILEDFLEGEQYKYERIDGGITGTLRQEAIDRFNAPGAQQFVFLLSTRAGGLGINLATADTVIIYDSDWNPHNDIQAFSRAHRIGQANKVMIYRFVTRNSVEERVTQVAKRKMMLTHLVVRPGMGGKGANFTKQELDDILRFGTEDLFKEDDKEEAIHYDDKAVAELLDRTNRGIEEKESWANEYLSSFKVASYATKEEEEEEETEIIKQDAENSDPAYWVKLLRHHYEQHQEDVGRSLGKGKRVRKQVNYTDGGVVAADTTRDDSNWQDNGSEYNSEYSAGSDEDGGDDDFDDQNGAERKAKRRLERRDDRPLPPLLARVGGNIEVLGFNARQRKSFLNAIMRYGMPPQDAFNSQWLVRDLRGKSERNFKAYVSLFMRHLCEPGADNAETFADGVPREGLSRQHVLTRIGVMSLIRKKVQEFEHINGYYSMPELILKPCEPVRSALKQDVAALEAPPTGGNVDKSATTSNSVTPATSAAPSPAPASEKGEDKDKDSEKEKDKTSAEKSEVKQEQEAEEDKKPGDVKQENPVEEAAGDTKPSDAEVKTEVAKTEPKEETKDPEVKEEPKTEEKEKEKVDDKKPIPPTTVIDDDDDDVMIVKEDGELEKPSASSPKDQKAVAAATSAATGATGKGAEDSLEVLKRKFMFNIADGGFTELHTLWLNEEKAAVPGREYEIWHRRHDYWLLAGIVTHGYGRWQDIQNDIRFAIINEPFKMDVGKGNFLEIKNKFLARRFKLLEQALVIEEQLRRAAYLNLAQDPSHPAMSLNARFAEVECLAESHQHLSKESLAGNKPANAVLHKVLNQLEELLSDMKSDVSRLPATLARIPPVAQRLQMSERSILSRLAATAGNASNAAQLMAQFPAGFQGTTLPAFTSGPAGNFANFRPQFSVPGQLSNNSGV
The assay is described as follows: nitrocellulose filter binding with [gamma-32P]ATP. The note with it: labelled compound; 90 nM protein, 0.25 mM MgCl2, 100 mM KCl, 20 mM HEPES, 26 °C; competition by cold ATP.

Assay [3] concerns the target T3, dMi-2 (Drosophila melanogaster, UniProt O97159, R1164Q).
T3 construct: gene Mi-2; FLAG-tagged dMi-2 (no truncation stated), baculovirus / Sf9 cells, anti-FLAG purified, FLAG peptide elution
Briefly: nitrocellulose filter binding with [gamma-32P]ATP. The following applies: labelled compound; same 90 nM protein, 0.25 mM MgCl2, 26 °C; printed as R1162Q (human CHD4 numbering).

Assay [4] addresses T4, dMi-2 (Drosophila melanogaster, UniProt O97159, L914V).
T4 construct: gene Mi-2; FLAG-tagged dMi-2 (no truncation stated), baculovirus / Sf9 cells, anti-FLAG purified, FLAG peptide elution
The assay is described as follows: nitrocellulose filter binding with [gamma-32P]ATP. The following applies: labelled compound; same 90 nM protein, 0.25 mM MgCl2, 26 °C; printed as L912V (human CHD4 numbering).

Assay [5] addresses T5, dMi-2 (Drosophila melanogaster, UniProt O97159, R552Q).
T5 construct: gene Mi-2; FLAG-tagged dMi-2 (no truncation stated), baculovirus / Sf9 cells, anti-FLAG purified, FLAG peptide elution
Briefly: nitrocellulose filter binding with [gamma-32P]ATP. The following applies: labelled compound; same 90 nM protein, 0.25 mM MgCl2, 26 °C; printed as R572Q (human CHD4 numbering; also as R572Y in places, primer encodes Q).

The target in assay [6] is T6, dMi-2 (Drosophila melanogaster, UniProt O97159, C452Y).
T6 construct: gene Mi-2; FLAG-tagged dMi-2 (no truncation stated), baculovirus / Sf9 cells, anti-FLAG purified, FLAG peptide elution
T6 sequence (O97159 whole entry C452Y, the tested form may be a part): as the sequence (O97159 whole entry, the tested form may be a part) above, with C452Y counted along it
Briefly: nitrocellulose filter binding with [gamma-32P]ATP. The note with it: labelled compound; same 90 nM protein, 0.25 mM MgCl2, 26 °C; printed as C464Y (human CHD4 numbering).

Assay [7] addresses T7, dMi-2 (Drosophila melanogaster, UniProt O97159, H1153R).
T7 construct: gene Mi-2; FLAG-tagged dMi-2 (no truncation stated), baculovirus / Sf9 cells, anti-FLAG purified, FLAG peptide elution
Briefly: nitrocellulose filter binding with [gamma-32P]ATP. The following applies: labelled compound; same 90 nM protein, 0.25 mM MgCl2, 26 °C; printed as H1151R (human CHD4 numbering).

In assay [8] the target is T2, dMi-2. The assay is described as follows: ATPase assay, TLC of [gamma-32P]ATP. The note with it: labelled compound as tracer; 20 µM ATP, saturating polynucleosomes, 26 °C, 30 min. Format: biochemical.
The target of assay [9] is T8, dMi-2 (Drosophila melanogaster, UniProt O97159, H1198Y).
T8 construct: gene Mi-2; FLAG-tagged dMi-2 (no truncation stated), baculovirus / Sf9 cells, anti-FLAG purified, FLAG peptide elution
T8 sequence (O97159 whole entry H1198Y, the tested form may be a part): as the sequence (O97159 whole entry, the tested form may be a part) above, with H1198Y counted along it
Briefly: nitrocellulose filter binding with [gamma-32P]ATP. The following applies: labelled compound; same 90 nM protein, 0.25 mM MgCl2, 26 °C; printed as H1196Y (human CHD4 numbering).

The target of assay [10] is T9, dMi-2 (Drosophila melanogaster, UniProt O97159, L1217P).
T9 construct: gene Mi-2; FLAG-tagged dMi-2 (no truncation stated), baculovirus / Sf9 cells, anti-FLAG purified, FLAG peptide elution
T9 sequence (O97159 whole entry L1217P, the tested form may be a part): as the sequence (O97159 whole entry, the tested form may be a part) above, with L1217P counted along it
The assay is described as follows: nitrocellulose filter binding with [gamma-32P]ATP. The note with it: labelled compound; same 90 nM protein, 0.25 mM MgCl2, 26 °C; printed as L1215P (human CHD4 numbering).

T7 sequence (O97159 whole entry H1153R, the tested form may be a part): as the sequence (O97159 whole entry, the tested form may be a part) above, with H1153R counted along it
T1 sequence (O97159 whole entry V538F, the tested form may be a part): as the sequence (O97159 whole entry, the tested form may be a part) above, with V538F counted along it
T5 sequence (O97159 whole entry R552Q, the tested form may be a part): as the sequence (O97159 whole entry, the tested form may be a part) above, with R552Q counted along it
T4 sequence (O97159 whole entry L914V, the tested form may be a part): as the sequence (O97159 whole entry, the tested form may be a part) above, with L914V counted along it
T3 sequence (O97159 whole entry R1164Q, the tested form may be a part): as the sequence (O97159 whole entry, the tested form may be a part) above, with R1164Q counted along it

On to `Nc1ncnc2c1ncn2[C@@H]1O[C@H](COP(=O)(O)OP(=O)(O)OP(=O)(O)O)[C@@H](O)[C@H]1O` [ATP], for which the “% of WT ATP binding activity” value on dMi-2 [1], at dMi-2 [3], on dMi-2 [4], on dMi-2 [6], on dMi-2 [7] and on dMi-2 [9] was “Most dMi-2 mutants displayed robust ATP binding activity” throughout. The “% of WT ATP binding activity” value at dMi-2 [10] was “Most dMi-2 mutants displayed robust ATP binding activity”. Moreover, the “nitrocellulose filter binding with [gamma-32P]ATP” value on dMi-2 [2] is given as “Binding of WT dMi-2 to radioactively labelled ATP was efficiently competed by an excess of”. In addition, the “% of WT binding activity” value at dMi-2 [5] was 32%. The “ATPase assay, TLC of [gamma-32P]ATP” value on dMi-2 [8] is given as “We performed ATPase assays in the absence or presence of saturating amounts of salt dialysis-assembled”.
